Data set [1] concerns Staphylococcus aureus ATCC29213. In words: MIC/MBC, broth microdilution. Format: cell-based. The note with it: Table 1; broth microdilution CLSI M100-S25, MH broth, 37°C, 18 h, three independent repeats.
Data set [2] relates to Escherichia coli ATCC25922. The conditions noted are these: Table 1; broth microdilution CLSI M100-S25, MH broth, 37°C, 18 h, three independent repeats.
Another data set deals with various microorganisms. In words: MIC/MBC, summary statements over several strains. Format: cell-based. The note with it: summary of Table 1.
The next data set has as its system sheep red blood cells. The conditions noted are these: sheep red blood cells in PBS, 37°C, 1 h, OD576, relative to melittin, mean ± SD, three repeats; for Hemolytic rate, 50 μg/mL: 50 μg/mL peptide; for Hemolytic rate, 100 μg/mL: 100 μg/mL peptide; for Hemolytic rate, 150 μg/mL: 150 μg/mL peptide; for Hemolytic rate, 300 μg/mL: 300 μg/mL peptide.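 For all read-outs here: hemolysis expressed in % from supernatant absorbance, with PBS-treated cells as 0% baseline and melittin as 100%, peptide mixed 1:1 with an 8% v/v erythrocyte suspension.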
The next data set deals with MAC-T cells. The conditions noted are these: peptide 150 μg/mL, 24 h, WST-1, mean ± SD, three repeats.
The next data set deals with RAW264.7 cells. The conditions noted are these: peptide 150 μg/mL, 24 h, WST-1, mean ± SD, three repeats.
In another data set the test system is S. aureus ATCC29213. In words: Intracellular antibacterial activity in MAC-T cells. The conditions noted are these: kanamycin 50 μg/mL, 2 h, infected MAC-T cells. Format: cell-based, Staphylococcus aureus. As to the method: (§1) The intracellular antibacterial activity of RW-BP100-4D against S. aureus ATCC29213 and S. enterica ATCC13076 were determined as described previously ([John et al., 2019]). MAC-T cells were cultured in a 12-well plate and then infected with S. aureus ATCC29213 or S. enterica ATCC13076 (∼10^5CFU, MOI = 10) for 1 h. The spare bacteria were eliminated by treating with kanamycin (100 μg/mL) for 1 h. After that, kanamycin was removed by washing with PBS for 4 times. Then RW-BP100-4D or RW-BP100 were added to a final concentration of 50 μg/mL, respectively and incubated for 2 h. Meanwhile, kanamycin (50 μg/mL) and PBS were set as the antibiotic treatment group and treatment control group, respectively. Finally, MAC-T cells were treated with 0.1% TritonX-100. The lysates were serially diluted and spread on selective agar plates to enumerate the intracellular live bacteria. Each test was performed with three independent repeats.

The next data set concerns S. enterica ATCC13076. Described as above. Format: cell-based, Salmonella enterica. The note with it: kanamycin 50 μg/mL, 2 h, infected MAC-T cells. As for the experimental part: as §1

≈ marks a conversion by molar mass, not a printed value. Where a SMILES comes first, the peptide text is derived from it.

On to `CC[C@H](C)[C@H](NC(=O)[C@H](CCCNC(=N)N)NC(=O)[C@@H](CCCNC(=N)N)NC(=O)[C@H](Cc1ccccc1)NC(=O)[C@H](CC(C)C)NC(=O)[C@H](CCCNC(=N)N)NC(=O)[C@@H](N)CCCNC(=N)N)C(=O)N[C@@H](CC(C)C)C(=O)N[C@@H](CCCNC(=N)N)C(=O)N[C@@H](Cc1c[nH]c2ccccc12)C(=O)N[C@@H](CC(C)C)C(N)=O` [RW-BP100-5D] (HELM PEPTIDE1{R.R.L.F.[dR].R.I.L.R.W.L.[am]}$$$$V2.0), for which the “MIC Staphylococcus aureus ATCC29213” value in data set [1] was determined as 6 µg/mL (≈ 3.79 µM). In addition, in data set [2], the “MIC Escherichia coli ATCC25922” value was 6 µg/mL (≈ 3.79 µM). For the same molecule, the “MIC against S. aureus ATCC29213 and E. coli ATCC25922 (both strains together)” value (“MIC … (both strains together)” for short) with various microorganisms fell in the range of 3 to 12 µg/mL. For the same molecule, in the data set on sheep red blood cells, the “Hemolytic rate, 50 μg/mL” value amounted to 1.26 ± 0.54%; the “Hemolytic rate, 100 μg/mL” value is 2.49 ± 0.72%; the “Hemolytic rate, 150 μg/mL” value is reported as 29.72 ± 0.94%; the “Hemolytic rate, 300 μg/mL” value came out at 51.41 ± 4.64%. In addition, the “Cell survival rate, MAC-T” value in the data set on MAC-T cells was 77.84 ± 5.63%. Besides, the “Cell survival rate, RAW264.7” value in the data set with RAW264.7 cells worked out at 39.05 ± 1.65%.
On to `CC[C@H](C)[C@H](NC(=O)[C@@H](CCCNC(=N)N)NC(=O)[C@H](CCCNC(=N)N)NC(=O)[C@H](Cc1ccccc1)NC(=O)[C@H](CC(C)C)NC(=O)[C@H](CCCNC(=N)N)NC(=O)[C@@H](N)CCCNC(=N)N)C(=O)N[C@@H](CC(C)C)C(=O)N[C@@H](CCCNC(=N)N)C(=O)N[C@@H](Cc1c[nH]c2ccccc12)C(=O)N[C@@H](CC(C)C)C(N)=O` [RW-BP100-6D] (HELM PEPTIDE1{R.R.L.F.R.[dR].I.L.R.W.L.[am]}$$$$V2.0), for which, in data set [1], the “MIC Staphylococcus aureus ATCC29213” value was 12 µg/mL (≈ 7.58 µM). Moreover, the “MIC Escherichia coli ATCC25922” value in data set [2] was found to be 12 µg/mL (≈ 7.58 µM). Moreover, in the data set on various microorganisms, the “MIC … (both strains together)” value was 3 to 12 µg/mL. Moreover, in the data set with sheep red blood cells, the “Hemolytic rate, 50 μg/mL” value is on record as 2.33 ± 1.51%; the “Hemolytic rate, 100 μg/mL” value is on record as 3.25 ± 0.23%; the “Hemolytic rate, 150 μg/mL” value came out at 32.57 ± 1.20%; the “Hemolytic rate, 300 μg/mL” value is reported as 55.81 ± 2.87%. In addition, in the data set with MAC-T cells, the “Cell survival rate, MAC-T” value came to 58.87 ± 3.45%. For the same molecule, the “Cell survival rate, RAW264.7” value with RAW264.7 cells turned out to be 5.92 ± 2.63%.
Take `CC[C@H](C)[C@H](NC(=O)[C@H](CCCNC(=N)N)NC(=O)[C@H](CCCNC(=N)N)NC(=O)[C@H](Cc1ccccc1)NC(=O)[C@H](CC(C)C)NC(=O)[C@H](CCCNC(=N)N)NC(=O)[C@@H](N)CCCNC(=N)N)C(=O)N[C@H](CC(C)C)C(=O)N[C@@H](CCCNC(=N)N)C(=O)N[C@@H](Cc1c[nH]c2ccccc12)C(=O)N[C@@H](CC(C)C)C(N)=O` [RW-BP100-8D] (HELM PEPTIDE1{R.R.L.F.R.R.I.[dL].R.W.L.[am]}$$$$V2.0): in data set [1], the “MIC Staphylococcus aureus ATCC29213” value turned out to be 12 µg/mL (≈ 7.58 µM). The “MIC Escherichia coli ATCC25922” value in data set [2] is 12 µg/mL (≈ 7.58 µM). Moreover, the “MIC … (both strains together)” value in the data set with various microorganisms was in the range of 3 to 12 µg/mL. Besides, in the data set on sheep red blood cells, the “Hemolytic rate, 50 μg/mL” value was determined as 0.91 ± 0.38%; the “Hemolytic rate, 100 μg/mL” value is reported as 1.38 ± 0.58%; the “Hemolytic rate, 150 μg/mL” value is listed as 26.19 ± 0.10%; the “Hemolytic rate, 300 μg/mL” value was 50.11 ± 3.17%. The “Cell survival rate, MAC-T” value in the data set with MAC-T cells came to 54.78 ± 2.65%. Moreover, the “Cell survival rate, RAW264.7” value with RAW264.7 cells amounted to 20.30 ± 3.26%.
For `CC[C@H](C)[C@H](NC(=O)[C@H](CCCNC(=N)N)NC(=O)[C@H](CCCNC(=N)N)NC(=O)[C@H](Cc1ccccc1)NC(=O)[C@H](CC(C)C)NC(=O)[C@H](CCCNC(=N)N)NC(=O)[C@@H](N)CCCNC(=N)N)C(=O)N[C@@H](CC(C)C)C(=O)N[C@H](CCCNC(=N)N)C(=O)N[C@@H](Cc1c[nH]c2ccccc12)C(=O)N[C@@H](CC(C)C)C(N)=O` [RW-BP100-9D] (HELM PEPTIDE1{R.R.L.F.R.R.I.L.[dR].W.L.[am]}$$$$V2.0), the “MIC Staphylococcus aureus ATCC29213” value in data set [1] was found to be 25 µg/mL (≈ 15.8 µM). Also, in data set [2], the “MIC Escherichia coli ATCC25922” value was found to be 25 µg/mL (≈ 15.8 µM). In the data set with sheep red blood cells, the “Hemolytic rate, 50 μg/mL” value is listed as 0.63 ± 0.24%; the “Hemolytic rate, 100 μg/mL” value came to 1.53 ± 0.09%; the “Hemolytic rate, 150 μg/mL” value was 18.14 ± 0.20%; the “Hemolytic rate, 300 μg/mL” value was 45.18 ± 2.41%. Moreover, the “Cell survival rate, MAC-T” value with MAC-T cells was found to be 92.50 ± 2.36%. The “Cell survival rate, RAW264.7” value in the data set on RAW264.7 cells is on record as 91.33 ± 5.63%.
For `CC[C@H](C)[C@H](NC(=O)[C@H](CCCNC(=N)N)NC(=O)[C@H](CCCNC(=N)N)NC(=O)[C@H](Cc1ccccc1)NC(=O)[C@H](CC(C)C)NC(=O)[C@H](CCCNC(=N)N)NC(=O)[C@@H](N)CCCNC(=N)N)C(=O)N[C@@H](CC(C)C)C(=O)N[C@@H](CCCNC(=N)N)C(=O)N[C@H](Cc1c[nH]c2ccccc12)C(=O)N[C@@H](CC(C)C)C(N)=O` [RW-BP100-10D] (HELM PEPTIDE1{R.R.L.F.R.R.I.L.R.[dW].L.[am]}$$$$V2.0), the “MIC Staphylococcus aureus ATCC29213” value in data set [1] came out at 50 µg/mL (≈ 31.6 µM). In addition, in data set [2], the “MIC Escherichia coli ATCC25922” value is 50 µg/mL (≈ 31.6 µM). Besides, in the data set on sheep red blood cells, the “Hemolytic rate, 50 μg/mL” value worked out at 0.31 ± 0.37%; the “Hemolytic rate, 100 μg/mL” value is reported as 1.28 ± 0.19%; the “Hemolytic rate, 150 μg/mL” value is on record as 19.20 ± 2.16%; the “Hemolytic rate, 300 μg/mL” value stood at 45.08 ± 4.70%. Moreover, the “Cell survival rate, MAC-T” value in the data set with MAC-T cells was 94.41 ± 4.26%. Further, the “Cell survival rate, RAW264.7” value with RAW264.7 cells is given as 92.19 ± 6.32%.
For `CC[C@H](C)[C@H](NC(=O)[C@H](CCCNC(=N)N)NC(=O)[C@H](CCCNC(=N)N)NC(=O)[C@H](Cc1ccccc1)NC(=O)[C@H](CC(C)C)NC(=O)[C@H](CCCNC(=N)N)NC(=O)[C@@H](N)CCCNC(=N)N)C(=O)N[C@@H](CC(C)C)C(=O)N[C@@H](CCCNC(=N)N)C(=O)N[C@@H](Cc1c[nH]c2ccccc12)C(=O)N[C@H](CC(C)C)C(N)=O` [RW-BP100-11D] (HELM PEPTIDE1{R.R.L.F.R.R.I.L.R.W.[dL].[am]}$$$$V2.0), the “MIC Staphylococcus aureus ATCC29213” value in data set [1] was over 50 µg/mL. Besides, the “MIC Escherichia coli ATCC25922” value in data set [2] was over 50 µg/mL. In addition, the “MIC … (both strains together)” value against various microorganisms is over 50 µg/mL. Besides, in the data set with sheep red blood cells, the “Hemolytic rate, 50 μg/mL” value is reported as 0.65 ± 0.60%; the “Hemolytic rate, 100 μg/mL” value is listed as 1.42 ± 0.15%; the “Hemolytic rate, 150 μg/mL” value stood at 17.36 ± 1.92%; the “Hemolytic rate, 300 μg/mL” value was 46.97 ± 6.45%. Besides, in the data set with MAC-T cells, the “Cell survival rate, MAC-T” value was found to be 77.81 ± 5.28%. In addition, the “Cell survival rate, RAW264.7” value in the data set on RAW264.7 cells amounted to 83.27 ± 4.56%.
In the case of `CC[C@@H](C)[C@@H](NC(=O)[C@@H](CCCNC(=N)N)NC(=O)[C@@H](CCCNC(=N)N)NC(=O)[C@@H](Cc1ccccc1)NC(=O)[C@@H](CC(C)C)NC(=O)[C@@H](CCCNC(=N)N)NC(=O)[C@H](N)CCCNC(=N)N)C(=O)N[C@H](CC(C)C)C(=O)N[C@H](CCCNC(=N)N)C(=O)N[C@H](Cc1c[nH]c2ccccc12)C(=O)N[C@H](CC(C)C)C(N)=O` [RW-BP100-All-D] (HELM PEPTIDE1{[dR].[dR].[dL].[dF].[dR].[dR].[dI].[dL].[dR].[dW].[dL].[am]}$$$$V2.0), the “MIC Staphylococcus aureus ATCC29213” value in data set [1] stood at 6 µg/mL (≈ 3.79 µM). The “MIC Escherichia coli ATCC25922” value in data set [2] stood at 6 µg/mL (≈ 3.79 µM). For the same molecule, the “MIC … (both strains together)” value in the data set on various microorganisms lay within 3 to 12 µg/mL. Further, in the data set on sheep red blood cells, the “Hemolytic rate, 50 μg/mL” value came to 1.94 ± 0.94%; the “Hemolytic rate, 100 μg/mL” value is on record as 2.75 ± 0.23%; the “Hemolytic rate, 150 μg/mL” value is 30.39 ± 2.11%; the “Hemolytic rate, 300 μg/mL” value worked out at 51.40 ± 1.94%. Moreover, in the data set on MAC-T cells, the “Cell survival rate, MAC-T” value worked out at 14.23 ± 2.37%. Also, the “Cell survival rate, RAW264.7” value with RAW264.7 cells is 23.37 ± 1.58%.
As to `NC[C@H]1O[C@H](O[C@H]2[C@H](O)[C@@H](O[C@H]3O[C@H](CO)[C@@H](O)[C@H](N)[C@H]3O)[C@H](N)C[C@@H]2N)[C@H](O)[C@@H](O)[C@@H]1O` [kanamycin], the “Intracellular CFU versus the untreated group, S. aureus ATCC29213” value in the data set on S. aureus ATCC29213 is “no significant difference”. In addition, the “Intracellular CFU versus the untreated group, S. enterica ATCC13076” value in the data set on S. enterica ATCC13076 is listed as “no significant difference”.

The values are drawn from article PMC8822125, “RW-BP100-4D, a Promising Antimicrobial Candidate With Broad-Spectrum Bactericidal Activity” (Frontiers in Microbiology, 2022).
